Assay: xn = mol fraction of the nth substance listed
Conditions: 100 kPa, Liquid; for speed of sound: Frequency=2 MHz, Linear variable-path acoustic interferometer; for mass density: Vibrating tube method

CCOCCO [2-ethoxyethan-1-ol] + OCc1ccccc1
Conditions | mass density, 298.15 K [kg/m3] | mass density, 303.15 K [kg/m3] | mass density, 308.15 K [kg/m3] | mass density, 313.15 K [kg/m3] | mass density, 318.15 K [kg/m3] | speed of sound, 298.15 K [m/s] | speed of sound, 308.15 K [m/s]
x2 = 0 | 925.36 | 920.72 | 916.11 | 911.47 | 906.9 | 1301.4 | 1274.8
x2 = 0.0793 | 936.7 | 931.63 | 926.88 | 922.19 | 917.52 | 1320 | 1291
x2 = 0.1593 | 947.73 | 942.59 | 937.61 | 932.97 | 928.22 | 1339 | 1308
x2 = 0.2401 | 958.4 | 953.27 | 948.33 | 943.6 | 938.75 | 1358 | 1325
x2 = 0.3215 | 968.73 | 963.72 | 958.87 | 954.15 | 949.14 | 1378 | 1342
x2 = 0.4037 | 978.84 | 973.92 | 969.17 | 964.42 | 959.34 | 1399 | 1360
x2 = 0.4866 | 988.63 | 983.76 | 979.06 | 974.35 | 969.28 | 1419 | 1379
x2 = 0.5703 | 998.17 | 993.33 | 988.65 | 984.06 | 979.07 | 1440 | 1398
x2 = 0.6547 | 1007.45 | 1002.6 | 997.97 | 993.39 | 988.67 | 1460 | 1417
x2 = 0.7398 | 1016.35 | 1011.53 | 1006.89 | 1002.53 | 998.04 | 1480 | 1437
x2 = 0.8257 | 1024.9 | 1020.21 | 1015.71 | 1011.52 | 1007.24 | 1499 | 1456
x2 = 0.9125 | 1033.23 | 1028.71 | 1024.47 | 1020.44 | 1016.45 | 1517 | 1476

OCc1ccccc1 [benzenemethanol] + COCCO
Conditions | mass density, 298.15 K [kg/m3] | mass density, 303.15 K [kg/m3] | mass density, 308.15 K [kg/m3] | mass density, 313.15 K [kg/m3] | mass density, 318.15 K [kg/m3] | speed of sound, 298.15 K [m/s] | speed of sound, 308.15 K [m/s]
x1 = 0.0979 | 974.27 | 969.06 | 963.98 | 958.77 | 953.4 | 1359 | 1319
x1 = 0.1928 | 985.51 | 980.26 | 975.04 | 969.7 | 964.14 | 1377 | 1337
x1 = 0.2847 | 995 | 989.74 | 984.55 | 979.32 | 973.82 | 1395 | 1354
x1 = 0.3739 | 1003.23 | 998.13 | 992.96 | 987.81 | 982.44 | 1413 | 1371
x1 = 0.4604 | 1010.46 | 1005.46 | 1000.42 | 995.25 | 990.02 | 1430 | 1388
x1 = 0.5443 | 1016.87 | 1011.91 | 1006.93 | 1001.91 | 996.67 | 1447 | 1405
x1 = 0.6258 | 1022.61 | 1017.7 | 1012.79 | 1007.81 | 1002.65 | 1463 | 1421
x1 = 0.7049 | 1027.69 | 1022.84 | 1018.04 | 1013.09 | 1007.91 | 1478 | 1437
x1 = 0.7818 | 1032.17 | 1027.39 | 1022.66 | 1017.74 | 1012.63 | 1493 | 1452
x1 = 0.8565 | 1035.9 | 1031.28 | 1026.79 | 1022.07 | 1017.05 | 1507 | 1467
x1 = 0.9292 | 1038.94 | 1034.49 | 1030.32 | 1025.92 | 1021.35 | 1521 | 1482
x1 = 1 | 1041.05 | 1037.15 | 1033.32 | 1029.46 | 1025.59 | 1534.5 | 1496

CCCCOCCO [2-butoxyethan-1-ol] + OCc1ccccc1
Conditions | mass density, 298.15 K [kg/m3] | mass density, 303.15 K [kg/m3] | mass density, 308.15 K [kg/m3] | mass density, 313.15 K [kg/m3] | mass density, 318.15 K [kg/m3] | speed of sound, 298.15 K [m/s] | speed of sound, 308.15 K [m/s]
x2 = 0 | 896.46 | 892.22 | 887.97 | 883.7 | 879.42 | 1305 | 1275
x2 = 0.1042 | 909.14 | 904.89 | 900.6 | 896.2 | 891.93 | 1329 | 1296
x2 = 0.2038 | 921.94 | 917.61 | 913.28 | 908.82 | 904.49 | 1352 | 1317
x2 = 0.299 | 934.77 | 930.34 | 925.95 | 921.47 | 917.11 | 1373 | 1337
x2 = 0.3902 | 947.51 | 942.98 | 938.56 | 934.1 | 929.63 | 1394 | 1356
x2 = 0.4776 | 960.11 | 955.52 | 951.03 | 946.55 | 942.13 | 1413 | 1375
x2 = 0.5614 | 972.47 | 967.75 | 963.31 | 958.86 | 954.41 | 1433 | 1394
x2 = 0.6418 | 984.52 | 979.84 | 975.34 | 970.91 | 966.56 | 1452 | 1412
x2 = 0.7191 | 996.35 | 991.7 | 987.22 | 982.84 | 978.55 | 1470 | 1430
x2 = 0.7933 | 1007.85 | 1003.3 | 998.89 | 994.59 | 990.4 | 1486 | 1446
x2 = 0.8648 | 1019.13 | 1014.73 | 1010.48 | 1006.26 | 1002.24 | 1503 | 1463
x2 = 0.9336 | 1030.15 | 1025.98 | 1021.88 | 1017.81 | 1013.89 | 1519 | 1479

Reference: the NIST ThermoML archive (doi:10.1016/j.jct.2015.08.040)
